Experimental data published in the NIST ThermoML archive (doi:10.1016/j.jct.2008.07.011).

Experiment: osmotic coefficient (dimensionless); mn = molality of the nth substance listed, in mol/kg
Conditions: Liquid, vapor pressure osmometry

CCC[n+]1ccn(C)c1.[Br-] [1-methyl-3-propylimidazolium bromide] + O
osmotic coefficient
Conditions	298.15 K	308.15 K	318.15 K	328.15 K
m1 = 0.0071	0.942	0.928	0.961	0.947
m1 = 0.0141	0.917	0.925	0.951	0.95
m1 = 0.0243	0.903	0.902	0.925	0.924
m1 = 0.0338	0.894	0.904	0.92	0.926
m1 = 0.0462	0.89	0.892	0.91	0.91
m1 = 0.0667	0.865	0.875	0.898	0.896
m1 = 0.0898	0.855	0.864	0.874	0.875
m1 = 0.1081	0.839	0.851	0.867	0.864
m1 = 0.1529	0.82	0.835	0.857	0.851
m1 = 0.194	0.807	0.816	0.836	0.842
m1 = 0.2403	0.798	0.802	0.812	0.818
m1 = 0.3018	0.783	0.792	0.805	0.813
m1 = 0.3677	0.762	0.772	0.793	0.794
m1 = 0.4338	0.755	0.761	0.776	0.787
m1 = 0.5359	0.742	0.749	0.753	0.76
m1 = 0.8595	0.706	0.72	0.728	0.735
m1 = 1.029	0.702	0.714	0.717	0.724
m1 = 1.604	0.674	0.696	0.702	0.704
m1 = 2.104	0.676	0.69	0.694	0.701
m1 = 2.705	0.671	0.683	0.701	0.709

CCCCCn1cc[n+](C)c1.[Br-] [1-pentyl-3-methylimidazolium bromide] + O
osmotic coefficient
Conditions	298.15 K	308.15 K	318.15 K	328.15 K
m1 = 0.0179	0.911	0.987	0.94	1.01
m1 = 0.025	0.925	0.964	0.924	0.996
m1 = 0.0301	0.906	0.933	0.912	0.982
m1 = 0.0518	0.878	0.892	0.895	0.955
m1 = 0.0722	0.861	0.872	0.882	0.92
m1 = 0.0904	0.852	0.856	0.871	0.91
m1 = 0.1155	0.826	0.843	0.857	0.852
m1 = 0.1697	0.808	0.811	0.831	0.843
m1 = 0.2113	0.793	0.798	0.816	0.827
m1 = 0.2308	0.785	0.786	0.813	0.811
m1 = 0.3311	0.745	0.76	0.776	0.782
m1 = 0.3787	0.726	0.745	0.762	0.766
m1 = 0.4716	0.704	0.727	0.749	0.754
m1 = 0.5627	0.694	0.709	0.72	0.734
m1 = 0.6532	0.679	0.689	0.697	0.706
m1 = 0.7246	0.669	0.682	0.692	0.697
m1 = 0.8353	0.657	0.666	0.68	0.681
m1 = 1.026	0.618	0.637	0.632	0.649
m1 = 1.509	0.583	0.588	0.594	0.608
m1 = 2.005	0.561	0.565	0.568	0.594

CCCCCCn1cc[n+](C)c1.[Br-] [3-hexyl-1-methyl-1H-imidazolium bromide] + O
osmotic coefficient
Conditions	298.15 K	308.15 K	318.15 K	328.15 K
m1 = 0.0155	0.876	0.889	0.91	0.935
m1 = 0.021	0.869	0.87	0.876	0.911
m1 = 0.0305	0.854	0.858	0.866	0.869
m1 = 0.0467	0.835	0.838	0.848	0.861
m1 = 0.0633	0.815	0.811	0.816	0.821
m1 = 0.0819	0.761	0.763	0.8	0.815
m1 = 0.121	0.741	0.742	0.775	0.79
m1 = 0.158	0.703	0.732	0.754	0.76
m1 = 0.1845	0.708	0.727	0.742	0.75
m1 = 0.2503	0.67	0.69	0.702	0.719
m1 = 0.3312	0.65	0.659	0.672	0.67
m1 = 0.4111	0.602	0.605	0.625	0.63
m1 = 0.5114	0.554	0.585	0.589	0.592
m1 = 0.5898	0.54	0.546	0.555	0.569
m1 = 0.6829	0.517	0.513	0.537	0.544
m1 = 0.7428	0.488	0.489	0.509	0.514
m1 = 1.119	0.384	0.397	0.413	0.429
m1 = 1.686	0.312	0.322	0.352	0.362
m1 = 2.398	0.271	0.292	0.309	0.328
